Experiments:
in vitro = conditions: human, uninfected SupT1 cells
[1] = tested on: downmodulation of MHC-I molecules expressed on the surface of HIV infected SupT1 cells; assay: cells; conditions: Human immunodeficiency virus 1, SUP-T1, read-out: EC50 for inhibition of MHC-I downmodulation utilizing the R1 parameter

Structure (SMILES) | CC50 at 48 h (in vitro) [µM] | EC50 [1] [µM]
CN(C(=O)CCc1cccc2c1OC(C)(C)C2)c1nc2c(s1)CCCC2 [Compound 106, 3-(2,2-Dimethyl-2,3-dihydrobenzofuran-7-yl)-N-methyl-N-(4,5,6,7-tetrahydrobenzo[d]thiazol-2-yl)propanamide] | > 125 | 0.42
CC1(C)Cc2cccc(CCC(=O)Nc3nc4c(F)cccc4s3)c2O1 [Compound 107, 3-(2,2-Dimethyl-2,3-dihydrobenzofuran-7-yl)-N-(4-fluorobenzo[d]thiazol-2-yl)propanamide] | > 100 | 0.37
COc1ccccc1CCC(=O)N(C)c1nc2c(s1)CCCC2 [Compound 110, 3-(2-Methoxyphenyl)-N-methyl-N-(4,5,6,7-tetrahydrobenzo[d]thiazol-2-yl) propanamide] | > 125 | 4.1
CN(C(=O)COc1cccc2[nH]ccc12)c1nc2c(s1)CCCC2 [Compound 111, 2-((1H-Indol-4-yl)oxy)-N-methyl-N-(4,5,6,7-tetrahydrobenzo[d]thiazol-2-yl) acetamide] | > 125 | 0.18
CCOc1ccccc1OCC(=O)N(C)c1nc2c(s1)CCCC2 [Compound 112, 2-(2-Ethoxyphenoxy)-N-methyl-N-(4,5,6,7-tetrahydrobenzo[d]thiazol-2-yl) acetamide] | > 125 | 0.22
Cc1cccc(OCC(=O)N(C)c2nc3c(s2)CCCC3)c1F [Compound 113, 2-(2-Fluoro-3-methylphenoxy)-N-methyl-N-(4,5,6,7-tetrahydrobenzo[d]thiazol-2-yl)acetamide] | > 125 | 0.55
Cc1cccc(OCC(=O)N(C)c2nc3c(s2)CCCC3)c1C [Compound 114, 2-(2,3-Dimethylphenoxy)-N-methyl-N-(4,5,6,7-tetrahydrobenzo[d]thiazol-2-yl)acetamide] | > 125 | 1.2
COc1cc(C)ccc1OCC(=O)N(C)c1nc2c(s1)CCCC2 [Compound 115, 2-(2-Methoxy-4-methylphenoxy)-N-methyl-N-(4,5,6,7-tetrahydrobenzo[d]thiazol-2-yl)acetamide] | > 125 | 1.8
COc1cccc(C)c1OCC(=O)N(C)c1nc2c(s1)CCCC2 [Compound 116, 2-(2-Methoxy-6-methylphenoxy)-N-methyl-N-(4,5,6,7-tetrahydrobenzo[d]thiazol-2-yl)acetamide] | > 125 | 0.2
Cc1cccc(OCC(=O)N(C)c2nc3c(s2)CCCC3)c1Br [Compound 117, 2-(2-Bromo-3-methylphenoxy)-N-methyl-N-(4,5,6,7-tetrahydrobenzo[d]thiazol-2-yl)acetamide] | > 125 | 0.95
COc1c(Br)cccc1OCC(=O)N(C)c1nc2c(s1)CCCC2 [Compound 118, 2-(3-Bromo-2-methoxyphenoxy)-N-methyl-N-(4,5,6,7-tetrahydrobenzo[d]thiazol-2-yl)acetamide] | > 125 | 2.1
COc1c(C)cccc1OCC(=O)N(C)c1nc2c(s1)CCCC2 [Compound 119, 2-(2-Methoxy-3-methylphenoxy)-N-methyl-N-(4,5,6,7-tetrahydrobenzo[d]thiazol-2-yl)acetamide] | > 125 | 0.78
COc1c(OCC(=O)N(C)c2nc3c(s2)CCCC3)cccc1C1CC1 [Compound 120, 2-(3-Cyclopropyl-2-methoxyphenoxy)-N-methyl-N-(4,5,6,7-tetrahydrobenzo [d]thiazol-2-yl)acetamide] | > 125 | 4.8
COc1cccc(OCC(=O)N(C)c2nc3c(s2)CCCC3)c1 [Compound 121, 2-(3-Methoxyphenoxy)-N-methyl-N-(4,5,6,7-tetrahydrobenzo[d]thiazol-2-yl) acetamide] | > 125 | 3.9
COc1ccc(C)cc1OCC(=O)N(C)c1nc2c(s1)CCCC2 [Compound 122, 2-(2-Methoxy-5-methylphenoxy)-N-methyl-N-(4,5,6,7-tetrahydrobenzo[d]thiazol-2-yl)acetamide] | > 125 | 5
Cc1cc2c(OCC(=O)N(C)c3nc4c(s3)CCCC4)cccc2[nH]1 [Compound 123, N-Methyl-2-((2-methyl-1H-indol-4-yl)oxy)-N-(4,5,6,7-tetrahydrobenzo[d]thiazol-2-yl)acetamide] | > 125 | 0.013
COc1cccc(F)c1OCC(=O)N(C)c1nc2c(s1)CCCC2 [Compound 124, 2-(2-Fluoro-6-methoxyphenoxy)-N-methyl-N-(4,5,6,7-tetrahydrobenzo[d]thiazol-2-yl)acetamide] | > 125 | 0.26
Cc1ccccc1OCC(=O)N(C)c1nc2c(s1)CCCC2 [Compound 125, N-Methyl-N-(4,5,6,7-tetrahydrobenzo[d]thiazol-2-yl)-2-(o-tolyloxy) acetamide] | > 125 | 0.88
CN(C(=O)COc1cccc2c1OCCO2)c1nc2c(s1)CCCC2 [Compound 126, 2-((2,3-Dihydrobenzo[b][1,4]dioxin-5-yl)oxy)-N-methyl-N-(4,5,6,7-tetrahydrobenzo[d]thiazol-2-yl)acetamide] | > 125 | 0.8

Structure (SMILES) | CC50 at 48 h (in vitro) [µM] | EC50 [1] [µM]
COc1ccc(OCC(=O)N(C)c2nc3c(s2)CCCC3)cc1 [Compound 127, 2-(4-Methoxyphenoxy)-N-methyl-N-(4,5,6,7-tetrahydrobenzo[d]thiazol-2-yl) acetamide] | > 125 | > 25
CN(C(=O)COc1cccc2cc[nH]c12)c1nc2c(s1)CCCC2 [Compound 128, 2-((1H-Indol-7-yl)oxy)-N-methyl-N-(4,5,6,7-tetrahydrobenzo[d]thiazol-2-yl) acetamide] | > 125 | > 25
Cc1c(Cl)cccc1OCC(=O)N(C)c1nc2c(s1)CCCC2 [Compound 129, 2-(3-Chloro-2-methylphenoxy)-N-methyl-N-(4,5,6,7-tetrahydrobenzo[d]thiazol-2-yl)acetamide] | > 125 | > 25
COc1ccccc1OCC(=O)N(C)c1nc2c(s1)CCCC2 [Compound 130, 2-(2-Methoxyphenoxy)-N-methyl-N-(4,5,6,7-tetrahydrobenzo[d]thiazol-2-yl) acetamide] | > 125 | 0.38
COc1cccc(OC)c1OCC(=O)N(C)c1nc2c(s1)CCCC2 [Compound 131, 2-(2,6-Dimethoxyphenoxy)-N-methyl-N-(4,5,6,7-tetrahydrobenzo[d]thiazol-2-yl)acetamide] | ~125 | 2.6
O=C(COc1cccc2[nH]ccc12)Nc1nc2c(s1)CCCC2 [Compound 132, 2-((1H-Indol-4-yl)oxy)-N-(4,5,6,7-tetrahydrobenzo[d]thiazol-2-yl)acetamide] | > 125 | 0.081
Cc1csc(NC(=O)COc2cccc3[nH]ccc23)n1 [Compound 133, 2-((1H-Indol-4-yl)oxy)-N-(4-methylthiazol-2-yl)acetamide] | > 100 | 1.5
Cc1csc(NC(=O)COc2cccc3cc[nH]c23)n1 [Compound 134, 2-((1H-Indol-7-yl)oxy)-N-(4-methylthiazol-2-yl)acetamide] | > 100 | 11
O=C(COc1cccc2c1CCN2)Nc1nc2c(s1)CCCC2 [Compound 135, 2-(Indolin-4-yloxy)-N-(4,5,6,7-tetrahydrobenzo[d]thiazol-2-yl)acetamide] | > 125 | 0.088
Cc1ccnc(C)c1OCC(=O)N(C)c1nc2c(s1)CCCC2 [Compound 136, 2-((2,4-Dimethylpyridin-3-yl)oxy)-N-methyl-N-(4,5,6,7-tetrahydrobenzo[d]thiazol-2-yl)acetamide] | 124 | 12
Cc1ncccc1OCC(=O)N(C)c1nc2c(s1)CCCC2 [Compound 137, N-Methyl-2-((2-methylpyridin-3-yl)oxy)-N-(4,5,6,7-tetrahydrobenzo[d]thiazol-2-yl)acetamide] | 12 | > 25
Cc1ccncc1OCC(=O)N(C)c1nc2c(s1)CCCC2 [Compound 138, N-Methyl-2-((4-methylpyridin-3-yl)oxy)-N-(4,5,6,7-tetrahydrobenzo[d]thiazol-2-yl)acetamide] | > 125 | > 25
Cc1csc(NC(=O)COc2ccccc2OC(C)C)n1 [Compound 140, 2-(2-isopropoxyphenoxy)-N-(4-methylthiazol-2-yl)acetamide] | > 125 | 14
Cc1csc(NC(=O)COc2ccccc2OCc2ccccc2)n1 [Compound 141, 2-(2-(Benzyloxy)phenoxy)-N-(4-methylthiazol-2-yl)acetamide] | > 100 | 1.84
Cc1csc(N(Cc2ccccc2)C(=O)COc2ccccc2OCc2ccccc2)n1 [Compound 142, N-Benzyl-2-(2-(benzyloxy)phenoxy)-N-(4-methylthiazol-2-yl)acetamide] | > 125 | 5.5
CC1(C)Cc2cccc(OCC(=O)Nc3nc4ccccc4s3)c2O1 [Compound 143, N-(benzo[d]thiazol-2-yl)-2-((2,2-dimethyl-2,3-dihydrobenzofuran-7-yl)oxy)acetamide] | > 100 | 0.41
CN(C(=O)COc1cccc2c1OC(C)(C)C2)c1nc2ccccc2s1 [Compound 144, N-(benzo[d]thiazol-2-yl)-2-((2,2-dimethyl-2,3-dihydrobenzofuran-7-yl)oxy)-N-methylacetamide] | > 90 | 29
CC1(C)Cc2cccc(OCC(=O)Nc3nc4c(Cl)cccc4s3)c2O1 [Compound 145, N-(4-Chlorobenzo[d]thiazol-2-yl)-2-((2,2-dimethyl-2,3-dihydrobenzofuran-7-yl)oxy)acetamide] | > 90 | 0.091
COc1cccc2sc(NC(=O)COc3cccc4c3OC(C)(C)C4)nc12 [Compound 146, 2-((2,2-Dimethyl-2,3-dihydrobenzofuran-7-yl)oxy)-N-(4-methoxybenzo[d]thiazol-2-yl)acetamide] | > 10 | 1.69
